Data as given in patent US11839637B2, “Neuron activator” (Kinjirushi Co., Ltd., priority 2017, dated 2023).

Experiments:
Type in all cases: cell-based, rat
[1] = tested on: PC12 cells; test: Dopamine production test of PC12 cells (Experimental example 1); conditions: 72 hours; for dopamine-producing ability, as compared to a case without these components: any one component in the medium, NGF 50 ng/ml
Protocol: Dopamine production tests of PC12 cells, using various components, were carried out as follows.
(§1) Such passage was repeated at least three times.
(§2) Supernatants were removed.
(§3) Each sample is numbered 1 to 39.
A concentration of dopamine in each supernatant was measured. Measurement of dopamine concentration was carried out using ELIZA KIT (manufactured by ImmuSmol, Product No.: BA-E-5300) according to the specifications. A ratio of dopamine concentration in each supernatant was expressed as a percentage (%) of a control of which dopamine concentration in the supernatant is 1.
The same applies to FIGS. 2 to 5. In FIG. 1, τ means statistically significant. * means that synergistic effect was confirmed by combining two components. Synergistic effect herein means that use of two components in combination can produce more amount of dopamine than a sum of amounts of dopamine produced when each component is used alone.

[2] = tested on: PC12 cells; test: Neurite extension test of PC12 cells (Experimental example 3); conditions: 72 hours; for neurite extension effect, as compared to a case without these components: any one component in the medium, NGF 50 ng/ml
Protocol: Neurite extension tests of PC12 cells, using various components, were carried out as follows.
as §1, §2, §3
Supernatants were removed. Three microscopic images (bright field, ×10 images, three wells per well) of PC12 cells settled in each well were taken. The shape of the whole PC12 cells in the images was observed. A shown in FIG. 6, when PC12 cells undergo differentiation, a neurite 2 extends from a cell body 1. The total number of PC12 cells, and the number of cells having the neurite 2 with a length L2 were counted. The length L2 is a longer length than a longer diameter L1 of the cell body 1. The number of cells having the neurite with the length L2 was divided by the total number of cells to obtain an extension percentage of the PC12 cells. […] The extension percentage was expressed by an average value of all PC12 cells appearing in all images. […] The same applies to FIGS. 8 to 11. […] Synergistic effect herein means that use of two components in combination can increase the extension percentage as compared to a sum of extension percentages when each component is used alone.

[3] = tested on: PC12 cells; test: Hydrogen peroxide toxicity resistance test, MTT (Experimental example 6); conditions: for MTT assay in medium with hydrogen peroxide: hydrogen peroxide 100 μM, component alone or combination with 6-MSITC
Protocol: In Experimental example 6, resistance of PC12 cells against hydrogen peroxide was tested. The test method is the same as that of Experimental example 5, except that hydrogen peroxide was added to the differentiation medium B, instead of amyloid β in Experimental example 5 above. A concentration of hydrogen peroxide in the differentiation medium B was 100 μM.

[4] = tested on: PC12 cells; test: Toxicity test to PC12 cells using MTT reagent (Experimental example 2); conditions: 72 hours, 6-MSITC and DHA 2.5-160 μM, curcumin 2.5-40 μM, isorhamnetin 0.02-10 μM
Protocol: In order to investigate toxicity of each component to PC12 cells, the PC12 cells were cultured in the same manner as in the above steps (1) to (4) of Experimental example 1, except for components added to the medium.
as §2

[5] = tested on: PC12 cells; test: Toxicity test to PC12 cells using MTT reagent (Experimental example 4); conditions: 72 hours, 6-MSITC and DHA 2.5-160 μM, curcumin 2.5-40 μM, isorhamnetin 2.5-20 μM
Protocol: In order to investigate toxicity of each component to PC12 cells, the PC12 cells were cultured in the same manner as in the above steps (1) to (4) of Experimental example 3, except for components added to the medium.
as §2

Compound | amount of dopamine production produced by the PC12 cells vs control ([1]; 0.1 μM added to the medium) | amount of dopamine production produced by the PC12 cells vs control ([1]; 2.5 μM added to the medium) | dopamine-producing ability, as compared to a case without these components [1] | extension of PC12 cells (extension percentage) ([2]; 0.1 μM added to the medium) | extension of PC12 cells (extension percentage) ([2]; 0.5 μM added to the medium) | extension of PC12 cells (extension percentage) ([2]; 2.5 μM added to the medium) | neurite extension effect, as compared to a case without these components [2] | MTT assay in medium with hydrogen peroxide [3] | MTT assay, as compared to the medium without hydrogen peroxide (control) ([3]; medium containing only hydrogen peroxide, 100 μM) | amount of dopamine production produced by the PC12 cells vs control ([1]; 0.02 μM added to the medium) | amount of dopamine production produced by the PC12 cells vs control ([1]; 0.5 μM added to the medium) | MTT assay compared with control (not using the component) [4] | toxicity to PC12 cells ([4]; MTT) | extension of PC12 cells (extension percentage) ([2]; 0.02 μM added to the medium) | MTT assay compared with control (not using the component) [5] | toxicity to PC12 cells ([5]; MTT)
COc1cc(/C=C/C(=O)CC(=O)/C=C/c2ccc(O)c(OC)c2)ccc1O [curcumin, Curcumin] | higher than the control | higher than the control | enhanced | significant extension enhancement | significant extension enhancement | significant extension enhancement | enhanced | a value without problem |  |  |  |  |  |  |  | 
OO [hydrogen peroxide, reference compound] |  |  |  |  |  |  |  |  | significantly decreased |  |  |  |  |  |  | 
COc1cc(-c2oc3cc(O)cc(O)c3c(=O)c2O)ccc1O [isorhamnetin, Isorhamnetin] | higher than the control |  | enhanced | significant extension enhancement | significant extension enhancement |  | enhanced | a value without problem |  | higher than the control | higher than the control | higher than the case of not using them (control) | low | significant extension enhancement | higher than the case of not using them (control) | low
